Results published in patent US20230321012A1 (priority 2021, published 2023).
Where “and” joins values, the source holds several entries; their conditions need not be identical. Equal entries are not always repeated. Blank lines part the entries; values can stand above or below the compound they belong to.

Legend:
[1] = AMXT 1501 level in tumor biopsy of a melanoma patient; settings: male, human, in vivo
[2] = tested on: four tumor cell lines; settings: average, growth of four cell lines in culture; read-out: in vitro EC50 against cancer cells; cited from earlier work
[3] = mouse, in vivo
[4] = in vivo; settings: BALB/c, mouse, 2.5 mg/kg
[5] = MALDI-FTICR imaging quantitation of DFMO in whole-body sections of Th-MYCN mice; assay type: in vivo, mouse; settings: for concentration at 96 h: male, Th-MYCN, mouse
Experimental: Male Th-MYCN mice, approximately 5-6 weeks of age, with spontaneous neuroblastoma tumor development commenced treatment according to Table 6.1 when tumors were approximately 5 mm in size. […] Time point: three treatments, cull 24 hours after last treatment in the morning.
Sample Preparation. Animals were euthanized on the morning of the 4th day, after three days of treatment and shaved, and then the carcasses were frozen. Tissues stored at −80° C. were placed inside the cryostat. The temperature of the cryostat was maintained around −20° C. and −40° C. 20-am tissue sections in the sagittal plane going through the left eye were obtained for each carcass. Tissue sections were mounted directly on indium tin oxide (ITO) slides.
Tissue sections on ITO slides were placed in a desiccator for 15 minutes before matrix deposition. An image of the slides was then acquired with a scanner to synchronize positions of the tissue sections with the target of the laser.
Dilution series of the test items were prepared in water from the stock solutions. […] A spot of pure solvent was added as a negative control. Slides were then placed in a desiccator for 15 minutes before MALDI matrix deposition. The control liver tissue consisted of a liver homogenate spiked with an olanzapine standard at 40 g/g of tissue. Sections of the liver homogenate were prepared and added on each ITO slide in order to monitor the signal of the FTICR through the different acquisitions and thus validate the comparison between slides.
For AMXT 1501, 2,5-dihydroxybenzoic acid (DHB) at 40 mg/ml in 1:1 MeOH/H2O with 1% trifluoroacetic acid (TFA) and 25 nM of ^13C4-AMXT 1501 was sprayed on the samples with an automatic sprayer (TM-Sprayer, HTX-Imaging).
The mass spectrometry imaging (MSI) acquisitions were performed using the parameters in Table 6.2 with a data reduction parameter set at 95%. MSI data were acquired and analyzed with FlexImaging 4.1 (Bruker Daltonics), Data Analysis 4.0 (Bruker Daltonics) and Multimaging™ 1.2.2 (ImaBioTech).
Intensity scales representing the molecular signal were adjusted for each image to discriminate the noise from the molecular signal but also to give the best visualization of the signal across the sections. […] Convolution step was performed on the original images using a normalized uniform kernel, which averages the values around a position. The kernel size was manually optimized for the analysis, minimizing the background noise. Based on the MSI data set on the tissue sections and the dilution series, the quantitation of the test items was performed with the IS approach. A correlation between the calibration curve and the signal obtained on the tissues was performed in order to determine the concentration of the test items per histological structure in g/g of tissue and μM.

[6] = COMBO (1% DFMO + AMXT 1501 2.5 mg/kg SC), mice 284, 286, 96 h, 2.5 mg/kg
[7] = DFMO alone 1% in drinking water, mice 049, 082, 96 h

SMILES: CCCCCCCCCCCCCCCC(=O)NCCCC[C@@H](N)C(=O)NCCCNCCCCNCCCN [AMXT 1501, D-lys(palmitoyl)-spermine]
Kp [1]: 14.6
EC50 [2]: 51 nM
effect of DFMO on AMXT 1501 tumor retention [3]: no effect
tumor AUC, AMXT 1501 [3]: 152,000 hr*ng/mL
tumor AUC0-∞, AMXT 1501 ([3]; sc, 2.5 mg/kg): 138,000 hr*ng/mL
AUC ([4]; plasma, sc): 8270 ng·h/mL
AUC(0-inf) ([4]; plasma, sc): 8890 ng·h/mL
Cmax ([4]; plasma, sc): 978 ng/mL
Kp ([4]; tumor and plasma, sc): 15.5
Kp at 72 h ([4]; tumor and plasma, sc): 894
Kp ([4]; tumor and plasma, subcutaneous): 18
concentration at 72 h ([4]; tumor, subcutaneous): ~1000 ng/mL

DFMO in Intestine wall ([5]; COMBO (1% DFMO + AMXT 1501 2.5 mg/kg SC), mice 284, 286, 96 h): 6156 µg/g
DFMO in Cardiac blood [5, 6]: 20.9 µg/g
DFMO in Eye [5, 6]: 49.3 µg/g
DFMO in Intestine contents [5, 6]: 8702 µg/g and 11264 µg/g
DFMO in Liver [5, 6]: 33.0 µg/g
DFMO in Lung [5, 6]: 43.1 µg/g
DFMO in Myocardium [5, 6]: 26.2 µg/g
DFMO in Cardiac blood [5, 7]: 16.5 µg/g
DFMO in Eye [5, 7]: 28.8 µg/g
DFMO in Intestine contents [5, 7]: 3487 µg/g and 2267 µg/g
DFMO in Kidney [5, 7]: 133 µg/g
DFMO in Liver [5, 7]: 28.5 µg/g
DFMO in Lung [5, 7]: 24.8 µg/g
DFMO concentration in tumor ([5]; DFMO only treatment group): 35 μg/g and 192 μM
tumor DFMO levels ([5]; MYCN mice after overnight drinking of 1% DFMO orally): 165 to 192 µM
DFMO concentration in tumor ([5]; combination treatment group): 30 μg/g and 165 μM
tumor DFMO concentration versus Ki ([5]; combination treatment group): 4.2 times
concentration at 96 h ([5]; brown fat, oral, 40 mg/day, DFMO in brown fat): ~25000 ng/g
concentration at 96 h ([5]; brown fat, oral, 1 % in drinking water, DFMO in Brown fat, DFMO alone 1% in drinking water, mice 049, 082, 96 h): 22600 ng/g
concentration at 96 h ([5]; brown fat, sc, 2.5 mg/kg, DFMO in Brown fat, COMBO (1% DFMO + AMXT 1501 2.5 mg/kg SC), mice 284, 286, 96 h): 27500 ng/g
concentration at 96 h ([5]; cardiac blood, oral, 40 mg/day, DFMO in cardiac blood, combination and single administration regimens): 16000 to 35000 ng/g
concentration at 96 h ([5]; cardiac blood, oral, 1 % in drinking water, DFMO in Cardiac blood, DFMO alone 1% in drinking water, mice 049, 082, 96 h): 27800 ng/g
concentration at 96 h ([5]; cardiac blood, sc, 2.5 mg/kg, DFMO in Cardiac blood, COMBO (1% DFMO + AMXT 1501 2.5 mg/kg SC), mice 284, 286, 96 h): 35400 ng/g
concentration at 96 h ([5]; eye, oral, 1 % in drinking water, DFMO in Eye, DFMO alone 1% in drinking water, mice 049, 082, 96 h): 33000 ng/g
concentration at 96 h ([5]; eye, sc, 2.5 mg/kg, DFMO in Eye, COMBO (1% DFMO + AMXT 1501 2.5 mg/kg SC), mice 284, 286, 96 h): 92100 ng/g
concentration at 96 h ([5]; intestine wall, oral, 1 % in drinking water, DFMO in Intestine wall, DFMO alone 1% in drinking water, mice 049, 082, 96 h): 803000 ng/g
concentration at 96 h ([5]; kidney, oral, 1 % in drinking water, DFMO in Kidney, DFMO alone 1% in drinking water, mice 049, 082, 96 h): 77600 ng/g
concentration at 96 h ([5]; liver, oral, 1 % in drinking water, DFMO in Liver, DFMO alone 1% in drinking water, mice 049, 082, 96 h): 36100 ng/g
concentration at 96 h ([5]; liver, sc, 2.5 mg/kg, DFMO in Liver, COMBO (1% DFMO + AMXT 1501 2.5 mg/kg SC), mice 284, 286, 96 h): 44700 ng/g
concentration at 96 h ([5]; lung, oral, 1 % in drinking water, DFMO in Lung, DFMO alone 1% in drinking water, mice 049, 082, 96 h): 48700 ng/g
concentration at 96 h ([5]; lung, sc, 2.5 mg/kg, DFMO in Lung, COMBO (1% DFMO + AMXT 1501 2.5 mg/kg SC), mice 284, 286, 96 h): 64700 ng/g
concentration at 96 h ([5]; myocardium, oral, 1 % in drinking water, DFMO in Myocardium, DFMO alone 1% in drinking water, mice 049, 082, 96 h): 10000 ng/g
concentration at 96 h ([5]; myocardium, sc, 2.5 mg/kg, DFMO in Myocardium, COMBO (1% DFMO + AMXT 1501 2.5 mg/kg SC), mice 284, 286, 96 h): 28500 ng/g
concentration at 96 h ([5]; oral, 40 mg/day, DFMO in eye, kidney, liver, lung, testis and thymus, range from testis to eye, both treatments): 14000 to 92000 ng/g
concentration at 96 h ([5]; pancreas, sc, 2.5 mg/kg, DFMO in Pancreas, COMBO (1% DFMO + AMXT 1501 2.5 mg/kg SC), mice 284, 286, 96 h): 83000 ng/g
concentration at 96 h ([5]; spleen, sc, 2.5 mg/kg, DFMO in Spleen, COMBO (1% DFMO + AMXT 1501 2.5 mg/kg SC), mice 284, 286, 96 h): 83600 ng/g
concentration at 96 h ([5]; stomach contents, sc, 2.5 mg/kg, DFMO in Stomach contents, COMBO (1% DFMO + AMXT 1501 2.5 mg/kg SC), mice 284, 286, 96 h): 111000 ng/g
concentration at 96 h ([5]; stomach wall, oral, 1 % in drinking water, DFMO in Stomach wall, DFMO alone 1% in drinking water, mice 049, 082, 96 h): 216000 ng/g
concentration at 96 h ([5]; stomach wall, sc, 2.5 mg/kg, DFMO in Stomach wall, COMBO (1% DFMO + AMXT 1501 2.5 mg/kg SC), mice 284, 286, 96 h): 44500 ng/g
concentration at 96 h ([5]; testis, oral, 1 % in drinking water, DFMO in Testis, DFMO alone 1% in drinking water, mice 049, 082, 96 h): 14500 ng/g
concentration at 96 h ([5]; testis, sc, 2.5 mg/kg, DFMO in Testis, COMBO (1% DFMO + AMXT 1501 2.5 mg/kg SC), mice 284, 286, 96 h): 48200 ng/g
concentration at 96 h ([5]; thymus, oral, 1 % in drinking water, DFMO in Thymus, DFMO alone 1% in drinking water, mice 049, 082, 96 h): 20900 ng/g
concentration at 96 h ([5]; thymus, sc, 2.5 mg/kg, DFMO in Thymus, COMBO (1% DFMO + AMXT 1501 2.5 mg/kg SC), mice 284, 286, 96 h): 26700 ng/g
concentration at 96 h ([5]; tumor, oral, 1 % in drinking water, DFMO in Tumor, DFMO alone 1% in drinking water, mice 049, 082, 96 h): 35100 ng/g
concentration at 96 h ([5]; tumor, sc, 2.5 mg/kg, DFMO in Tumor, COMBO (1% DFMO + AMXT 1501 2.5 mg/kg SC), mice 284, 286, 96 h): 30400 ng/g
SMILES: NCCCC(N)(C(=O)O)C(F)F (stereo not drawn) [DFMO, difluoromethylornithine]
